From patent US4921984A, “Novel platinum complexes” (Nippon Kayaku Kabushiki Kaisha, priority 1985, dated 1990)

Assays:
[1] = test system: mouse fibrosarcoma M5076 cells; assay: Antitumor activity test in vivo, fibrosarcoma M5076; settings: M5076 inoculated s.c., i.p. administration
Description: (§1) 1×10^6 mouse leukemia P388 cells were inoculated into the abdominal cavities of 6-week-old female CDF1 mice, and from the next day a compound No. 15 was administered to them intraperitoneally once a day for 5 consecutive days. Separately, 1×10^6 mouse lung cancer Lewis lung carcinoma (LL) cells were inoculated into the abdominal cavities of male BDFl mice, and from the next day a compound No. 15 was administered to them intraperitoneally once a day for 5 consecutive days. Separately, 1×10^6 mouse fibrosarcoma M5076 cells were inoculated into the body sides of female C57BL/6 mice subcutaneously, and from the next day a compound No. 15 was administered to them intraperitoneally. Separately, 1×10^6 mouse colon cancer (colon 26) cells were inoculated into the abdominal cavities of female CDF1 mice, and from the next day a compound No. 15 was administered to them intraperitoneally. To respective control groups (compound-non-treated groups), physiological saline solution was administered.
(§2) From the survival times of the compound-treated group and the control group, respective median values (median survival times) were calculated. Using these values, T/C percentage was calculated from the following equation. [formula]

mouse leukemia L1210 = assay: Antitumor activity test on mouse leukemia L1210 in vivo; settings: for max (T/C): L1210, average survival time treated/control ×100, i.p. once a day for 5 days; for Opt. dose: L1210, dose giving max (T/C); for Opt. dose / LD50: i.p. once a day for 5 days; for LD50: L1210-bearing CDF1 mice
Description: Mice of compound-non-treated group (control group) were administered with physiological saline solution in the same manner. The average survival times of the compound-treated group and the control group (abbreviated as T and C, respectively) were measured and T/C percentage (T/C×100) was calculated from the following equation. [formula]
In Table 4, max (T/C) means the maximum value of T/C and optimum dose (opt. dose) means an administration amount giving the max namely, an optimum administration amount.

[2] = test system: mouse leukemia P388 cells; assay: Antitumor activity test in vivo, mouse leukemia P388; settings: for Opt. dose: P388, i.p. once a day for 5 days; for Max (T/C): P388, median survival time, i.p. once a day for 5 days
Description: as §1, §2

[3] = test system: mouse colon cancer (colon 26) cells; assay: Antitumor activity test in vivo, colon 26
Description: as §1, §2

[4] = test system: cis-Platin resistant mouse leukemia L1210 cells; assay: Growth inhibition test on cis-Platin resistant L1210 tumor cells; format: cell-based; settings: ratio of IC50 on cis-Platin resistant to non-resistant L1210 cells
Source text: (§3) 1×10^5 mouse leukemia L1210 cells or 1×10^5 mouse leukemia P388 cells were inoculated into the abdominal cavities of CDF1 female mouse. […] After 5 days, their tumor cells were inoculated to the abdominal cavities of other CDF1 female mouse, and the same treatment was applied.

[5] = test system: cis-Platin resistant mouse leukemia P388 cells; assay: Growth inhibition test on cis-Platin resistant P388 tumor cells; format: cell-based; settings: ratio of IC50 on cis-Platin resistant to non-resistant P388 cells
Source text: as §3

[6] = test system: mouse leukemia L1210 cells; assay: Growth inhibition test on cultured mouse leukemia L1210 cells; format: cell-based; settings: RPMI 1640 with 10% fetal calf serum
Description: Mouse leukemia L1210 cells were cultured in a RPMI 1640 medium containing 10% of fetal calf serum.

[7] = test system: mouse lung cancer Lewis lung carcinoma (LL) cells; assay: Antitumor activity test in vivo, Lewis lung carcinoma (LL); settings: i.p. once a day for 5 days; for Max (T/C): median survival time
Description: as §1, §2

various tumor cells = assay: Antitumor activity on various tumors (general statement); format: in vivo, mouse; settings: in words
Description: as §1, §2

Test for renal toxicity = settings: mouse, in vivo
Description: A compound was administered one time to 6-week-old male CDFl mice intraperitoneally. After 4 days, their blood was collected for measurement of blood urea nitrogen concentration (BUN value).
In Table 6, body weight ratio is a ratio of body weight after 4 days from administration to body weight of administration day.

[8] = rate, in words; prior art; cited from earlier work

## CC1CC[NH2+][Pt-2]2([NH2+]C1)[O]C(=O)C1(CCC1)C(=O)[O]2 (racemic) [Compound No. 15, cis-Cyclobutane-1,1-dicarboxylato-2-methyl-1,4-butanediamine platinum]
[1]
  Opt. dose: 16 mg/kg
[1]; median survival time
  Max (T/C): 152%
Mouse leukemia L1210
  max (T/C): 182%
  Opt. dose: 32 mg/kg
  LD50: 80.0 mg/kg
[2]
  Opt. dose: 32 mg/kg
  Max (T/C): 260%
other
  Solubility in water: > 8 mg/mL
[3]; Colon 26, i.p. administration
  Opt. dose: 32 mg/kg
[3]; Colon 26, median survival time, i.p. administration
  Max (T/C): 198%
[4]
  IC50 R/IC50, Tumor cell L1210: 3.19
[5]
  IC50 R/IC50, Tumor cell P388: 3.26
[6]
  IC50: 1.20 µg/mL
[7]
  Opt. dose: 32 mg/kg
  Max (T/C): 222%

## C[C@@H](CN)CCN.O=C([O-])C1(C(=O)[O-])CCC1.[Pt+2] (stereo in doubt) [15R, cis-cyclobutane-1,1-dicarboxylato-R-2-methyl-1,4-butanediamine platinum]
Mouse leukemia L1210
  max (T/C): 189%
  Opt. dose: 32 mg/kg
  LD50: 33.6 mg/kg
Various tumor cells
  antitumor effect: excellent antitumor activities on various tumor cells
Test for renal toxicity
  renal toxicity: very low renal toxicity
[2]
  Opt. dose: 20 mg/kg
  Max (T/C): 253%
other
  Solubility in water: > 15 mg/mL
[6]
  IC50: 0.78 µg/mL
[7]
  Opt. dose: 30 mg/kg
  Max (T/C): 166%

## C[C@H]1CC[NH2+][Pt-2]2([NH2+]C1)[O]C(=O)C1(CCC1)C(=O)[O]2 [15S, cis-cyclobutane-1,1-dicarboxylato-S-2-methyl-1,4-butanediamine platinum]
Mouse leukemia L1210
  max (T/C): 206%
  Opt. dose: 32 mg/kg
  LD50: 48.0 mg/kg
Various tumor cells
  antitumor effect: excellent antitumor activities on various tumor cells
Test for renal toxicity
  renal toxicity: very low renal toxicity
[2]
  Opt. dose: 40 mg/kg
  Max (T/C): 253%
other
  Solubility in water: > 15 mg/mL
[6]
  IC50: 1.08 µg/mL
[7]
  Opt. dose: 50 mg/kg
  Max (T/C): 164%

## CC1(C)CCC[NH2+][Pt-2]([Cl])([Cl])[NH2+]1 [Compound No. 25, cis-Dichloro-1,1-dimethyl-1,4-butanediamine platinum]
Mouse leukemia L1210
  max (T/C): 150%
  Opt. dose: 2 mg/kg
  LD50: 3.0 mg/kg
Physiological saline
  Solubility in physiological saline solution: > 2 mg/ml
[6]
  IC50: 0.25 µg/mL

## N.N.[Cl][Pt][Cl] [cis-Platin, cis-dichlorodiammineplatinum, reference compound]
Mouse leukemia L1210
  Opt. dose: 4 mg/kg
[8]
  dissolution in water: dissolving in water slowly
